Results on 1 sequence are retold here after article PMC8312610, “F4, a collagen XIX-derived peptide, inhibits tumor angiogenesis through αvβ3 and α5β1 integrin interaction” (Cell Adhesion & Migration, 2021).

One assay deals with HUVEC. The experiment in a line: Capillary (pseudo-)tube formation on Matrigel. The format is cell-based, human. The method, then:
Figure 2. NC1(XIX) and F4 inhibit endothelial cell in vitro pseudotube formation. 50,000 HUVEC were seeded in Matrigel coated well of a 48 well-plate and incubated with or without 40 μM NC1(XIX) or F4. Pseudotube formation was observed and photographed under an inverted microscope after 8 hours (a). The number of segments, of nodes and the total length of pseudotubes were quantified by the ImageJ software, using the Angiogenesis Analyzer tool (b). The values are the means ± SD (n = 8 replicates). *** p < 0.001). The experiment was repeated three times (N = 3)
Human Umbilical Vein Endothelial Cells (HUVEC) (Ref C-12253) were purchased from Promocell. They were grown in Endothelial Cell Growth Medium (ECGM) (Promocell, Ref C-22110: Basal medium supplemented with 0.02 mL/mL Fetal Calf Serum, 0.004 mL/mL Endothelial Cell Growth Supplement, 0.1 ng/mL Epidermal Growth Factor (recombinant human), 1 ng/mL Basic Fibroblast Growth Factor (recombinant human), 90 μg/mL Heparin, 1 μg/mL Hydrocortisone) at +37°C in a humid atmosphere containing 5% CO2. PromoCell Detach Kit was used for the detachment of HUVEC according to the manufacturer’s protocols (Promocell, ref C-41200).
The ability of HUVEC to form pseudo-tubes was investigated on Matrigel (Corning, ref 356237). Matrigel was loaded into 48-well plate and allowed to polymerize at +37°C for 2 h. 50,000 HUVEC suspended in Basal media supplemented with 0.004 mL/mL Endothelial Cell Growth Supplement, 90 μg/mL Heparin, 1 μg/mL Hydrocortisone with or without 40 μM NC1(XIX) or F4 were seeded into each well. Plates were incubated at +37°C in a humid atmosphere containing 5% CO2, 95% for 8 h. The formation of the capillary network was then imaged under an inverted light microscope. Quantitative evaluation of the capillary network was performed using the angiogenesis analyzer tool of ImageJ analysis software. The number of nodes, of segments and the total length of the capillary network were determined.

Assay [1] has as its system αvβ3 integrin. In words: Solid phase assay, direct binding to αvβ3. On the set-up: species or system human. The following applies: solid phase assays. An excerpt: Figure 5. F4 directly binds to αvβ3 and α5β1 integrins. Direct interaction between αvβ3 or α5β1 integrin and F4 was studied using solid phase assays as described in the material and method section. The F4 peptide was biotinylated to allow its detection using the streptavidin-peroxidase complex. Different conditions were used. (a-b) The amounts of coated αvβ3 (a) or α5β1 integrin (b) were increased while biotinylated F4 peptide was kept constant. (c-d) The concentration of biotinylated F4 peptide was increased while coated amounts of αvβ3 (c) or α5β1 (d) integrins were kept constant. (e-f) Competitive assays were performed using increasing concentrations of F4 peptide while biotinylated-F4 peptide and αvβ3 (e) or α5β1 (f) integrins were kept constant. […]
Wells of a 96-well plate were coated with α5β1 (ref. 3230-A5-050, R&D systems) and/or αvβ3 integrin (ref. 3050-AV-050, R&D systems) at different concentrations ranging from 26 × 10^−7 mol/L to 0.1 × 10^−7 mol/L (100 μL per well in PBS). […] The intensity of the yellow coloration was measured at 450 nm with an LB940 spectrophotometer (Berthold Technologies).
The optimum integrin amount for the coating was determined using the above protocol and the optimum ligand concentration was sought using different dilutions of the biotinylated-F4 peptide ranging from 20.8 × 10^−4 to 0.16 × 10^−4 mol/L.

Assay [2] concerns αvβ3 integrin. The experiment in a line: Solid phase competition assay with biotinylated-F4, αvβ3. The format is binding, human. The note with it: unlabeled F4, molar ratio 1/0 to 1/125, integrin coated at 26 × 10^−7 mol/L, 90 min, room temperature, N = 2. From the text: Figure 5. F4 directly binds to αvβ3 and α5β1 integrins. Direct interaction between αvβ3 or α5β1 integrin and F4 was studied using solid phase assays as described in the material and method section. The F4 peptide was biotinylated to allow its detection using the streptavidin-peroxidase complex. Different conditions were used. (a-b) The amounts of coated αvβ3 (a) or α5β1 integrin (b) were increased while biotinylated F4 peptide was kept constant. (c-d) The concentration of biotinylated F4 peptide was increased while coated amounts of αvβ3 (c) or α5β1 (d) integrins were kept constant. (e-f) Competitive assays were performed using increasing concentrations of F4 peptide while biotinylated-F4 peptide and αvβ3 (e) or α5β1 (f) integrins were kept constant. The solid phase assays were repeated twice (N = 2; n = 2)
Wells of a 96-well plate were coated with α5β1 (ref. 3230-A5-050, R&D systems) and/or αvβ3 integrin (ref. 3050-AV-050, R&D systems) at different concentrations ranging from 26 × 10^−7 mol/L to 0.1 × 10^−7 mol/L (100 μL per well in PBS). The 96-well plate was left overnight at room temperature. The coating was then blocked with TBS containing 5% nonfat dry milk, 1 mM MgCl2 and 1 mM CaCl2 for 2 h at room temperature. […] The intensity of the yellow coloration was measured at 450 nm with an LB940 spectrophotometer (Berthold Technologies). […]

The test system of a further assay is tumor cell. On the set-up: method as in PMID 26621838. The note with it: in vitro; ref [36]; cited from earlier work.
Where [3] appears, read: 40 µM, 8 h, 50,000 HUVEC on Matrigel, ImageJ Angiogenesis Analyzer, p < 0.001 for NC1(XIX) and F4, n = 8, N = 3.

Positions of bridges follow the written chain, without caps; N, C: chain ends. No end group written: not given here.

Regarding “CNPEDCLYPVSHAHQR (disulfide 1-6 (inferred)) [F4, collagen XIX-derived peptide, released by plasmin from type XIX collagen]”, in the assay on HUVEC (setting [3]), the “decrease of the number of nodes vs control” value was determined as 77%, the “decrease of the number of segments vs control” value is 52% and the “decrease of the total length of capillary tubes vs control” value was found to be 49%. The “inhibition of capillary network, F4 compared with NC1(XIX)” value in the assay with HUVEC (40 µM, 8 h, HUVEC on Matrigel) is “stronger inhibition of the number of nodes, segments and of the total length of capillary network than NC1(XIX) peptide”. Further, the “inhibition of pseudo-tube formation” value in the assay with HUVEC (40 µM, 8 h, HUVEC on Matrigel, compared to control) is on record as “strongly inhibited pseudo-tube formation”. In addition, the “inhibition of VEGF-induced pseudo-tube formation” value with HUVEC (endothelial cells on Matrigel (abstract)) was “inhibited VEGF-induced pseudo-tube formation”. Moreover, the “anti-angiogenic effect on pseudo-tube formation, F4 compared with NC1(XIX) (discussion)” value with HUVEC (in vitro) is given as “even greater than the whole NC1(XIX) domain”. Also, in the assay with αvβ3 integrin [1], the “direct binding to αvβ3 (conclusion)” value was “binds to both αvβ3 and α5β1 integrins in a direct manner”. Also, in the assay with αvβ3 integrin [2], the “competition with biotinylated-F4 binding to αvβ3” value is “decreased consequently”. Further, the tumor cell migration result in the assay with tumor cell was “inhibits in vitro tumor cell migration”.
